Data taken from ChEMBL document CHEMBL4145518, “High anticancer potency on tumor cells of dehydroabietylamine Schiff-base derivatives and a copper(II) complex” (Eur J Med Chem, 2018).
Active and inactive are the calls of the source. No cut-off for these calls is given here.

Key:
HeLa = assay: Antiproliferative activity against human HeLa cells after 36 hrs by MTT assay; format: functional, cell-based
HepG2 [1] = assay: Antiproliferative activity against human HepG2 cells after 36 hrs by MTT assay; format: functional, cell-based; conditions: HepG2, 36 h
MCF7 = assay: Antiproliferative activity against human MCF7 cells after 36 hrs by MTT assay; format: functional, cell-based; conditions: MCF7, 36 h
A549 = assay: Antiproliferative activity against human A549 cells after 36 hrs by MTT assay; format: functional, cell-based; conditions: A549, 36 h
HUVEC = assay: Cytotoxicity against HUVEC assessed as reduction in cell viability after 36 hrs by MTT assay; format: cell-based; conditions: Homo sapiens
HepG2 [2] = assay: Induction of apoptosis in human HepG2 cells assessed as early apoptotic cells at 0.1 ug/ml after 24 hrs by Annexin V/propidium iodide staining based flow cytometry (reference value: 7.92%); format: functional
HepG2 [3] = assay: Induction of apoptosis in human HepG2 cells assessed as late apoptotic cells at 0.1 ug/ml after 24 hrs by Annexin V/propidium iodide staining based flow cytometry (reference value: 7.09%); format: functional
HepG2 [4] = assay: Induction of apoptosis in human HepG2 cells assessed as necrotic cells at 0.1 ug/ml after 24 hrs by Annexin V/propidium iodide staining based flow cytometry (reference value: 1.86%); format: functional
HepG2 [5] = assay: Induction of apoptosis in human HepG2 cells assessed as viable cells at 0.1 ug/ml after 24 hrs by Annexin V/propidium iodide staining based flow cytometry (reference value: 83.13%); format: functional; conditions: HepG2, 24 h, read-out: Activity
HepG2 [6] = assay: Induction of apoptosis in human HepG2 cells assessed as early apoptotic cells at 1 ug/ml after 24 hrs by Annexin V/propidium iodide staining based flow cytometry (reference value: 7.92%); format: functional
HepG2 [7] = assay: Induction of apoptosis in human HepG2 cells assessed as late apoptotic cells at 1 ug/ml after 24 hrs by Annexin V/propidium iodide staining based flow cytometry (reference value: 7.09%); format: functional
HepG2 [8] = assay: Induction of apoptosis in human HepG2 cells assessed as necrotic cells at 1 ug/ml after 24 hrs by Annexin V/propidium iodide staining based flow cytometry (reference value: 1.86%); format: functional
HepG2 [9] = assay: Induction of apoptosis in human HepG2 cells assessed as viable cells at 1 ug/ml after 24 hrs by Annexin V/propidium iodide staining based flow cytometry (reference value: 83.13%); format: functional; conditions: HepG2, 24 h, read-out: Activity
HepG2 [10] = assay: Induction of apoptosis in human HepG2 cells assessed as early apoptotic cells at 10 ug/ml after 24 hrs by Annexin V/propidium iodide staining based flow cytometry (reference value: 7.92%); format: functional
HepG2 [11] = assay: Induction of apoptosis in human HepG2 cells assessed as late apoptotic cells at 10 ug/ml after 24 hrs by Annexin V/propidium iodide staining based flow cytometry (reference value: 7.09%); format: functional
HepG2 [12] = assay: Induction of apoptosis in human HepG2 cells assessed as necrotic cells at 10 ug/ml after 24 hrs by Annexin V/propidium iodide staining based flow cytometry (reference value: 1.86%); format: functional
HepG2 [13] = assay: Induction of apoptosis in human HepG2 cells assessed as viable cells at 10 ug/ml after 24 hrs by Annexin V/propidium iodide staining based flow cytometry (reference value: 83.13%); format: functional; conditions: HepG2, 24 h, read-out: Activity
Salmon testes DNA [14] = assay: Binding affinity to salmon sperm DNA assessed as DNA intercalation at 1.5 10^-5M by ethidium bromide staining based fluorescence assay; format: nucleic-acid assay; conditions: Salmonidae
Salmon testes DNA [15] = assay: Binding affinity to salmon sperm DNA assessed as hypochromic shift at 1.5 10^-5M by ethidium bromide staining based fluorescence assay; format: nucleic-acid assay; conditions: Salmonidae
Salmon testes DNA [16] = assay: Binding affinity to salmon sperm DNA assessed as DNA intercalation at 5 10^-5M by ethidium bromide staining based fluorescence assay; format: nucleic-acid assay; conditions: Salmonidae
Salmon testes DNA [17] = assay: Binding affinity to salmon sperm DNA assessed as hypochromic shift at 5 10^-5M by ethidium bromide staining based fluorescence assay; format: nucleic-acid assay; conditions: Salmonidae
[18] = Selectivity index, ratio of IC50 for HUVEC to IC50 for human HepG2 cells; format: toxicity; conditions: HUVEC and HepG2 cells, read-out: Ratio IC50
Androgen receptor = target: T1, Androgen receptor (Homo sapiens, UniProt P10275); assay: Binding affinity to androgen receptor (unknown origin)
T1 sequence (P10275 whole entry): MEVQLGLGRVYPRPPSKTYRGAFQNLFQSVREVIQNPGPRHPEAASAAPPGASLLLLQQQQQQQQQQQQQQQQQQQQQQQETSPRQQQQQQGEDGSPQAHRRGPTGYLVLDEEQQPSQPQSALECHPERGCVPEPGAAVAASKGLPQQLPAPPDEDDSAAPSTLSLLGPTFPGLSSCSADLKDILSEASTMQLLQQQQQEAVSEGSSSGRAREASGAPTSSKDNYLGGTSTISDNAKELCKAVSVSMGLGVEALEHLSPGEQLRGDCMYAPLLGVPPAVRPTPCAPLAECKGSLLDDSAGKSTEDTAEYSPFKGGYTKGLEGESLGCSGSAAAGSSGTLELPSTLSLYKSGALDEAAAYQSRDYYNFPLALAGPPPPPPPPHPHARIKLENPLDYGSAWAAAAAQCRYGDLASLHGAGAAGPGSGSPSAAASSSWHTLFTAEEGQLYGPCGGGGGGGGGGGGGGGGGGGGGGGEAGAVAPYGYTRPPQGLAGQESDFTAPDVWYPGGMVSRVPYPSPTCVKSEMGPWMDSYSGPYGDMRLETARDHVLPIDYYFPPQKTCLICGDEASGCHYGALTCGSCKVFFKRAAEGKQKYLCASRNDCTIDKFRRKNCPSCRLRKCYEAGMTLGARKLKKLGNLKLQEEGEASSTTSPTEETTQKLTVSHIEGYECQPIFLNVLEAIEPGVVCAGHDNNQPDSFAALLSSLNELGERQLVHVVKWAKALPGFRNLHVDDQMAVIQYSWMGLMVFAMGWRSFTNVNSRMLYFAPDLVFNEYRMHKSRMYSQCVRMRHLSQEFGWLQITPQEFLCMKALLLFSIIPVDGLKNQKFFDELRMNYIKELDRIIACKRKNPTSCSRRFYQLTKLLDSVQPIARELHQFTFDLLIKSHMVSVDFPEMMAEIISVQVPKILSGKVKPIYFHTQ

Salmon testes DNA [19] = assay: Binding affinity to salmon sperm DNA assessed as DNA intercalation by ethidium bromide staining based fluorescence assay; format: nucleic-acid assay; conditions: Salmonidae

| Compound | IC50 (HeLa) | IC50 (HepG2 [1]) | IC50 (MCF7) | IC50 (A549) | IC50 (HUVEC) | Activity (HepG2 [2]) | Activity (HepG2 [3]) | Activity (HepG2 [4]) | viability at 0.1 µg/mL (HepG2 [5]) | Activity (HepG2 [6]) | Activity (HepG2 [7]) | Activity (HepG2 [8]) | viability at 1 µg/mL (HepG2 [9]) | Activity (HepG2 [10]) | Activity (HepG2 [11]) | Activity (HepG2 [12]) | viability at 10 µg/mL (HepG2 [13]) | Activity (Salmon testes DNA [16]) | further results |
| --- | --- | --- | --- | --- | --- | --- | --- | --- | --- | --- | --- | --- | --- | --- | --- | --- | --- | --- | --- |
| CC(C)c1ccc2c(c1)CC[C@H]1[C@](C)(C/N=C/c3ncc[nH]3)CCC[C@]21C | 3.22 µM | 0.24 µM | 4.28 µM | 3.17 µM | 7.67 µM | 26.33% | 18.54% | 0.69% | 54.4% | 51.15% | 10.13% | 0.25% | 38.5% | 98.32% | 0.32% | 0% | 1.06% | – | Activity (Salmon testes DNA [14]): Active; Activity (Salmon testes DNA [15]): Active |
| CC(C)c1ccc2c(c1)CC[C@H]1[C@](C)(C/N=C/c3cccc(C(C)(C)C)c3O)CCC[C@]21C | 20 µM | 10.5 µM | 25 µM | 41 µM | 33 µM | – | – | – | – | – | – | – | – | – | – | – | – | Active | – |
| CC(C)c1ccc2c(c1)CC[C@H]1[C@](C)(C/N=C/c3c[nH]cn3)CCC[C@]21C | 7.86 µM | 0.14 µM | 2.58 µM | 7 µM | 26 µM | 33.71% | 12.9% | 0.66% | 52.7% | 60.49% | 6.39% | 0.23% | 32.9% | 98.78% | 0.29% | 0% | 0.93% | Active | Activity (Salmon testes DNA [17]): Active; selectivity ratio [18]: 180 |
| CC(C)c1ccc2c(c1)C(=O)C[C@H]1[C@@](C)(CNC(=O)c3ccccc3)CCC[C@]21C | – | – | – | – | – | – | – | – | – | – | – | – | – | – | – | – | – | – | IC50 (Androgen receptor): 83.8 µM |
| COc1cccc2c1C(=O)c1c(O)c3c(c(O)c1C2=O)C[C@@](O)(C(=O)CO)C[C@@H]3O[C@H]1C[C@H](N)[C@H](O)[C@H](C)O1 [DOXORUBICIN] | – | – | – | – | – | 34.49% | 11.74% | 0.62% | 53.1% | 47.19% | 12.6% | 0.35% | 39.9% | 70.12% | 3.57% | 0% | 26.3% | – | Activity (Salmon testes DNA [19]): Active |
| CC(C)c1ccc2c(c1)CC[C@H]1[C@](C)(CN)CCC[C@]21C | 2.02 µM | 2.56 µM | 19.4 µM | 5.02 µM | 1.27 µM | 22.94% | 15.46% | 0.69% | 60.9% | 44.79% | 22.98% | 0.24% | 32% | 91.91% | 0.7% | 0% | 1.4% | – | – |
| CC(C)c1ccc2c(c1)CC[C@H]1[C@](C)(C/N=C/c3cc(C(C)(C)C)cc(C(C)(C)C)c3O)CCC[C@]21C | 41 µM | 17.6 µM | 5.41 µM | 40 µM | 41 µM | – | – | – | – | – | – | – | – | – | – | – | – | Active | – |
| CCN(CC)c1ccc(/C=N/C[C@]2(C)CCC[C@]3(C)c4ccc(C(C)C)cc4CC[C@@H]23)c(O)c1 | 11.2 µM | 10.7 µM | 14.1 µM | 17 µM | 43.1 µM | – | – | – | – | – | – | – | – | – | – | – | – | Active | – |
